Counter-ions that a name gives are not always drawn.
How the values were obtained:
Type in all cases: physicochemical
[1] = Solubility assessment (solvent added in 10 volume aliquots)
Procedure: For each solvent investigated, approximately 8 mg of compound 1 was weighed into an 8 ml screw top glass vial. The solvent was added in 10 volume aliquots and the mixture sonicated and warmed (with a hot-air gun) to encourage dissolution. If dissolution was not achieved after the addition of 100 volumes of solvent, a further 100 volumes was added.

[2] = Gravimetric Vapour Sorption (GVS)
Procedure: Sorption isotherms were obtained using a SMS DVS Intrinsic moisture sorption analyser, controlled by SMS Analysis Suite software. The sample temperature was maintained at 25° C. by the instrument controls. The humidity was controlled by mixing streams of dry and wet nitrogen, with a total flow rate of 200 ml.min^−1. The relative humidity was measured by a calibrated Rotronic probe (dynamic range of 1.0-100% RH), located near the sample. The weight change, (mass relaxation) of the sample as a function of % RH was constantly monitored by the microbalance (accuracy ±0.005 mg). Typically 5-20 mg of sample was placed in a tared mesh stainless steel basket under ambient conditions. The sample was loaded and unloaded at 40% RH and 25° C. (typical room conditions). A moisture sorption isotherm was performed as outlined below (2 scans giving 1 complete cycle). The standard isotherm was performed at 25° C. at 10% RH intervals over a 0.5-90% RH range.
The hygroscopicity of the citrate was investigated by carrying out a gravimetric vapour sorption experiment on Batch 4. A sample of approximately 20 mg was held at 25° C. whilst the humidity of its environment was changed through two complete cycles. […] The sample takes longer to reach equilibrium in the early stages of the experiment. This may be due to displacement of residual solvent.

[3] = Solubility assessment (solvent added in 10 volume aliquots); remark: listed apart in the source
[4] = Polymorphism assessment (XRPD after 25° C./50° C. cycles in solvent)
Procedure: The vials were then placed in a humidity chamber and subjected to cycles of 25° C./50° C. (8 hour cycles) for 24 hours. At the end of this time the samples were examined and then left with loosened lids to allow for evaporation of the solvent. Those samples which had dried out were then transferred to a quartz array, whilst those for which there was still solvent present, were filtered under vacuum onto a sinter. The samples were then analysed by XRPD to assess their crystalline state and form.

[5] = Phase stability by XRPD after storage at 40° C. and 75% relative humidity for one week; conditions: solid form by low resolution XRPD after one week
Procedure: Condition 2 (Low Resolution)
X-Ray Powder Diffraction patterns were also collected on a Bruker D8 diffractometer using Cu K[…] radiation (40 kV, 40 mA), θ-2θ goniometer, and divergence of V4 and receiving slits, a Ge monochromator and a Lynxeye detector. The instrument is performance checked using a certified Corundum standard (NIST 1976). The software used for data collection was Diffrac Plus XRD Commander v2.5.0 and the data were analysed and presented using Diffrac Plus EVA v 11.0.0.2 or v 13.0.0.2. Samples were run under ambient conditions as flat plate specimens using powder as received. Approximately 15 mg of the sample was gently packed into a cavity cut into polished, zerobackground (510) silicon wafer. The sample was rotated in its own plane during analysis. The details of the data collection are:
The samples which had been prepared for the collection of low resolution XRPD traces were placed in a chamber maintained at 40° C. and 75% relative humidity. After one week the samples were reanalysed by low resolution XRPD (Condition 2), to check for phase changes. It can be seen that no phase change has occurred, and that citrate salts of the invention are stable for at least one week under these conditions.

[6] = Differential Scanning Calorimetry (DSC); conditions: heated at 10° C.min^−1
Procedure: Differential Scanning Calorimetry (DSC) data were collected on a Mettler DSC 823e equipped with a 34 position auto-sampler. The instrument was calibrated for energy and temperature using certified indium. Typically 0.5-3 mg of each sample, in a pin-holed aluminium pan, was heated at 10° C.min^−1 from 25° C. to 350° C. A nitrogen purge at 50 ml.min^−1 was maintained over the sample. The instrument control and data analysis software was STARe v9.10.

[7] = Thermogravimetric Analysis (TGA)
Procedure: Thermogravimetric Analysis (TGA) data were collected on a Mettler TGA/SDTA 851e equipped with a 34 position autosampler. The instrument was temperature calibrated using certified indium. Typically 5-30 mg of each sample was loaded onto a pre-weighed aluminium crucible and was heated at 10° C.min^−1 from ambient temperature to 350° C. A nitrogen purge at 50 ml.min^−1 was maintained over the sample. The instrument control and data analysis software was STARe v9.10.

C1=C2COC/C=C/COCc3cc(ccc3OCCN3CCCC3)Nc3nccc(n3)C(=C1)O2 [citrate, 9E-15-(2-pyrrolidin-1-yl-ethoxy)-7,12,25-trioxa-19,21,24-triaza-tetracyclo[18.3.1.1(2,5).1(14,18)]hexacosa-1(24),2,4,9,14,16,18(26),20,22-nonaene citrate]
solubility in organic solvents ([1]; organic solvents of the screen): extremely limited
hygroscopicity ([2]; GVS, 0% RH to 90% RH): not hygroscopic
maximum weight difference ([2]; between 0% RH and 90% RH, 25° C.): less than 1 % w/w
level at which the salt dissolves in water [3]: ≥ 100000 µg/mL
solid form of recovered solid (XRPD) ([4]; aqueous solution allowed to evaporate): amorphous
solid form of residues (XRPD) ([4]; organic solvent screening samples): Form 1

C1=C2COC/C=C/COCc3cc(ccc3OCCN3CCCC3)Nc3nccc(n3)C(=C1)O2 [Compound I, 9E-15-(2-pyrrolidin-1-yl-ethoxy)-7,12,25-trioxa-19,21,24-triaza-tetracyclo[18.3.1.1(2,5).1(14,18)]hexacosa-1(24),2,4,9,14,16,18(26),20,22-nonaene]
total dissolution in solvent screen ([1]; 11 solvents, up to 200 volumes): total dissolution was only achieved in water

C1=C2COC/C=C/COCc3cc(ccc3OCCN3CCCC3)Nc3nccc(n3)C(=C1)O2 [Batch 6]
Phase Stability 1 wk @ 40° C./75% RH [5]: Crystalline Form 1
Differential Scanning Calorimetry complex endotherm onset (significant thermal event) [6]: onset 176 °C
Thermogravimetric Analysis weight change ([7]; 160 to 250° C.): −20% w/w 160 to 250 °C
Thermogravimetric Analysis weight change ([7]; ambient to 160° C.): −0.3% w/w ambient to

Source: patent US9062074B2, “(9E)-15-(2-pyrrolidin-1-yl-ethoxy)-7,12,25-trioxa-19,21,24-triaza-tetracyclo[18.3.1.1(2.5).1(14,18)]hexacosa-1(24),2,4,9,14,16,18(26),20,22-nonaene citrate salt” (CTI BioPharma Corp., priority 2009, dated 2015)
